Measured values as given in patent publication US6656690B2, “Mass spectrometric methods for biomolecular screening” (priority 1998, dated 2003).
“Also recorded” adds a separate entry of the source.

Tested on: 27-mer RNA/DNA chimeric corresponding to the 16S rRNA A site
Experiment: ESI-MS and CID/CAD MS-MS protection assay on chimeric 27-mer RNA/DNA (ion trap)
Format: binding, prokaryotic
Method: In order to study the structure of the 27-mer RNA corresponding to the 16S rRNA A site, of sequence 5′-GGC-GUC-ACA-CCU-UCG-GGU-GAA-GUC-GCC-3′ (SEQ ID NO:1) a chimeric RNA/DNA molecule that incorporates three deoxyadenosine (dA) residues at positions 7, 20 and 21 was prepared using standard nucleic acid synthesis protocols on an automated synthesizer. This chimeric nucleic acid of sequence 5′-GGC-GUC-dACA-CCU-UCG-GGU-GdAdA-GUC-GCC-3′ (SEQ ID NO:2) was injected as a solution in water into an electrospray mass spectrometer. […] These fragments correspond to the w7^(2−), w8^(2−) and the a7-B^(2−) fragments respectively, that are formed by cleavage of the chimeric nucleic acid adjacent to each of the incorporated dA residues. […]
Next, another sample of the chimeric nucleic acid was treated with a solution of paromomycin and the resulting mixture analyzed by ESI followed by CID using a mass spectrometer. […]
1 mL (0.6 O.D.) of a solution of a 27-mer RNA containing 3 dA residues (from Example 1) was diluted into 500 μL of 1:1 isopropanol:water and adjusted to provide a solution that was 150 mM in ammonium acetate, pH 7.4 and wherein the RNA concentration was […]. […] This mixture was then subjected to ESI-MS and the ionization of the nucleic acid and its complex monitored in the mass spectrum. […]

## NC[C@@H]1O[C@H](O[C@H]2[C@@H](O)[C@H](O[C@@H]3[C@@H](O)[C@H](N)C[C@H](N)[C@H]3O[C@H]3O[C@H](CO)[C@@H](O)[C@H](O)[C@H]3N)O[C@@H]2CO)[C@H](N)[C@@H](O)[C@@H]1O [paromomycin]
Same activation energy as free RNA
  fragmentation at dA sites of the complex under CID/CAD (protection of binding site): no fragmentation at the dA sites; also recorded: No cleavage was found to occur; also recorded: No significant fragment ions; also recorded: No fragment ions are detected
Target 10 mM as printed, paromomycin and library members ~150 nM
  complex formation / binding strength with chimeric 27-mer (in words): only a 1:1 complex
